Assay results reported in the supplement of paper PMC10307832.

How the values were obtained:
Test in all cases: relative viability (nuclei count vs DMSO), 5 days (fraction); higher = more cells survive
[1] = compound: COc1cc2ncn(-c3cc(OCc4ccccc4C(F)(F)F)c(C(N)=O)s3)c2cc1OC + CCNC(=O)c1noc(-c2cc(C(C)C)c(O)cc2O)c1-c1ccc(CN2CCOCC2)cc1 [Luminespib] (partner 0.01 µM)
Summary of the method: (§1)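 Five library-drug doses in √10 steps were combined with a fixed anchor-drug dose, or a single drug was given alone, by pin tool to lung cancer cell lines in 1536-well plates the day after seeding. Nuclei were stained and counted after 5 days. Relative viability is the nuclei count in treated wells over that in vehicle wells, taken as the median of duplicate plates.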

[2] = compound: COc1cc2ncn(-c3cc(OCc4ccccc4C(F)(F)F)c(C(N)=O)s3)c2cc1OC + COc1cccc2cc(-c3nc([C@H]4CC[C@H](C(=O)O)CC4)n4ncnc(N)c34)[nH]c12 [OSI-027] (partner 0.5 µM)
Summary of the method: as §1

[3] = compound: COc1cc2ncn(-c3cc(OCc4ccccc4C(F)(F)F)c(C(N)=O)s3)c2cc1OC + CS(=O)(=O)CCNCc1ccc(-c2ccc3ncnc(Nc4ccc(OCc5cccc(F)c5)c(Cl)c4)c3c2)o1 [Lapatinib] (partner 2 µM)
Summary of the method: as §1

[4] = compound: COc1cc2ncn(-c3cc(OCc4ccccc4C(F)(F)F)c(C(N)=O)s3)c2cc1OC + C[C@]1(O)C[C@@H](c2nc(-c3ccc4ccc(-c5ccccc5)nc4c3)c3c(N)nccn32)C1 [Linsitinib] (partner 1 µM)
Summary of the method: as §1

| Cell Line | relative viability ([1]; first compound 0.05 µM) | relative viability ([1]; first compound 0.1581 µM) | relative viability ([1]; first compound 0.5 µM) | relative viability ([1]; first compound 1.581 µM) | relative viability ([1]; first compound 5 µM) | relative viability ([2]; first compound 0.05 µM) | relative viability ([2]; first compound 0.1581 µM) | relative viability ([2]; first compound 0.5 µM) | relative viability ([2]; first compound 1.581 µM) | relative viability ([2]; first compound 5 µM) | relative viability ([3]; first compound 0.05 µM) | relative viability ([3]; first compound 0.1581 µM) | relative viability ([3]; first compound 0.5 µM) | relative viability ([3]; first compound 1.581 µM) | relative viability ([3]; first compound 5 µM) | relative viability ([4]; first compound 0.05 µM) | relative viability ([4]; first compound 0.1581 µM) | relative viability ([4]; first compound 0.5 µM) | relative viability ([4]; first compound 1.581 µM) | relative viability ([4]; first compound 5 µM) |
| --- | --- | --- | --- | --- | --- | --- | --- | --- | --- | --- | --- | --- | --- | --- | --- | --- | --- | --- | --- | --- |
| NCI-H661 | 0.812 | 0.872 | 0.528 | 0.255 | 0.212 | 0.755 | 0.581 | 0.53 | 0.191 | 0.174 | 0.431 | 0.517 | 0.467 | 0.18 | 0.251 | 0.513 | 0.526 | 0.39 | 0.247 | 0.174 |
| NCI-H520 | 0.218 | 0.25 | 0.21 | 0.261 | 0.2 | 0.28 | 0.29 | 0.27 | 0.163 | 0.175 | 1.01 | 0.814 | 0.387 | 0.172 | 0.149 | 0.964 | 0.957 | 0.477 | 0.166 | 0.154 |
| NCI-H727 | 0.396 | 0.311 | 0.334 | 0.291 | 0.31 | 0.684 | 0.692 | 0.457 | 0.516 | 0.407 | 0.803 | 0.694 | 0.541 | 0.338 | 0.296 | 0.321 | 0.283 | 0.166 | 0.186 | 0.305 |
| LK-2 | 0.194 | 0.204 | 0.157 | 0.152 | 0.173 | 0.197 | 0.221 | 0.17 | 0.173 | 0.138 | 1.01 | 0.841 | 0.437 | 0.217 | 0.222 | 0.591 | 0.413 | 0.284 | 0.182 | 0.165 |
| NCI-H1993 | 0.756 | 0.8 | 0.548 | 0.463 | 0.448 | 0.477 | 0.549 | 0.429 | 0.438 | 0.491 | 0.954 | 0.852 | 0.594 | 0.466 | 0.51 | 0.835 | 0.782 | 0.572 | 0.56 | 0.528 |
| PC-14 | 0.15 | 0.303 | 0.189 | 0.159 | 0.133 | 0.861 | 0.904 | 0.254 | 0.0302 | 0.027 | 0.33 | 0.353 | 0.318 | – | 0.278 | 1.05 | 0.906 | 0.463 | – | 0.106 |
| NCI-H1437 | 1.16 | 0.969 | 0.53 | 0.244 | 0.159 | 0.958 | 0.79 | 0.298 | 0.142 | 0.118 | 0.865 | 0.699 | 0.243 | 0.136 | 0.113 | 1.09 | 1.01 | 0.11 | 0.1 | 0.09 |
| SW 1573 | 0.547 | 0.337 | 0.12 | 0.091 | 0.154 | 0.757 | 0.606 | 0.281 | 0.129 | 0.105 | 1.14 | 0.445 | 0.918 | 0.217 | 0.739 | 0.733 | 0.869 | 0.514 | 0.173 | 0.275 |
| BEN | 0.398 | 0.522 | 0.227 | 0.21 | 0.214 | 0.272 | 0.307 | 0.278 | 0.205 | 0.233 | 0.696 | 0.526 | 0.56 | 0.256 | 0.212 | 0.931 | 0.875 | 0.648 | 0.235 | 0.297 |
| LC-2-ad | 0.759 | 0.857 | 0.515 | 0.293 | 0.29 | 0.813 | 0.754 | 0.393 | 0.289 | 0.254 | 0.811 | 0.592 | 0.511 | 0.119 | 0.0933 | 0.722 | 0.685 | 0.119 | 0.106 | 0.0972 |
| COR-L23 | 0.363 | 0.604 | 0.249 | 0.104 | 0.0965 | 0.697 | 0.644 | 0.679 | 0.117 | 0.0946 | 0.891 | 1.01 | 0.798 | 0.143 | 0.107 | 0.887 | 0.761 | 0.332 | 0.0808 | 0.1 |
| SK-LU-1 | 0.223 | 0.238 | 0.203 | 0.217 | 0.193 | 0.33 | 0.332 | 0.168 | 0.196 | 0.188 | 0.833 | 0.842 | 0.427 | 0.246 | 0.197 | 1.28 | 1.01 | 0.395 | 0.399 | 0.295 |
| NCI-H1915 | 0.796 | 0.713 | 0.389 | 0.0805 | 0.0432 | 0.657 | 0.543 | 0.321 | 0.136 | 0.114 | 1.03 | 0.961 | 0.803 | 0.134 | 0.0963 | 1.09 | 1.05 | 0.795 | 0.169 | 0.106 |
| NCI-H647 | 0.438 | 0.143 | 0.12 | 0.101 | 0.069 | 0.687 | 0.561 | 0.536 | 0.0932 | 0.0815 | 0.97 | 0.935 | 0.448 | 0.0772 | 0.0798 | 1.07 | 1.09 | 0.267 | 0.101 | 0.126 |
| NCI-H2009 | 1.03 | 0.941 | 0.819 | 0.127 | 0.101 | 0.487 | 0.56 | 0.209 | 0.176 | 0.135 | 0.868 | 0.777 | 0.318 | 0.169 | 0.146 | 1.19 | 1.11 | 0.918 | 0.208 | 0.22 |
| NCI-H2126 | 0.957 | 0.875 | 0.532 | 0.288 | 0.265 | 0.715 | 0.771 | 0.604 | 0.289 | 0.22 | 0.772 | 0.776 | 0.636 | 0.352 | 0.244 | 0.721 | 0.772 | 0.587 | 0.292 | 0.264 |
